# Data published in patent US11141488B2, “Compositions comprising biodegradable copolymers for prolonged local release of an antibiotic” (DEXCEL PHARMA TECHNOLOGIES LTD., priority 2017, dated 2021).
# Read-outs that look alike come from different tables or passages of the source.
# Columns and labels:
# [1] = Local and systemic gentamicin levels after single intramuscular injection in rabbits; type: in vivo, New Zealand White (NZW) rabbits; settings: rabbit muscle
# Experimental: Prior to injection, a skin incision was made in order to expose the muscle. The site of injection was marked by a non-absorbable suture at the upper layer of the muscle. […] Following injection, the skin was closed using surgical clips. The procedure was performed under general anesthesia. Animals were clinically observed for up to 8 weeks post-dosing, if applicable.
# Tissue collection was performed by resecting the right paravertebral muscle, transversally slicing into ˜1 cm thick serial sections (total of 7 serial sections), when the injection site was located at the core center of the central section. […] At the injection site, one sample ( ? ) was taken.
# [2] = rat skin tissue
# Experimental: The site of injection was located at the right mid trunk area close to the spinal cord of the animals. The fur covering the flank and dorsal areas was removed by close clipping using an electric clipper up to 96 hours prior to dosing. Injections were performed using 18-19 G needle. The procedure was performed under general anesthesia. Blood samples were collected at 15 minutes, 30 minutes, 45 minutes, 1 hour, 1.5 hours, 2 hours, 4 hours, 6 hours, 8 hours, 24 hours, 48 hours, 72 hours, 1 week, 2 weeks, 3 weeks, 4 weeks, 6 weeks, and 8 weeks.
# Blood samples were processed by centrifugation (3,000 G for 15 minutes at room temperature). Following centrifugation, plasma was removed into plastic tubes, followed by freezing using liquid nitrogen to (−70)-(−80)° C. for subsequent analysis.
# Tissue collection was performed following removal of the dorsal trunk area by close clipping using an electrical clipper, if needed. The skin at the dorsal site of the animal was removed and pinned to a cork board. […] The injection site A is marked by a circular area of 1 cm in diameter (1×0.8 cm diameter sample). Circular strips B, C, and D each indicate 0.5 cm strips in width encircling circle (at least 4 samples were taken from each strip).
# Thereafter, the samples were injected into a LC-MS/MS system (3 μl for samples at a concentration range of 2.5-170 μg/ml and 20 μl for samples at a concentration range of 0.075-2.5 μg/ml). […] Thereafter, 20 μl of the samples were injected into a LC-MS/MS system.
# Sample concentrations were obtained by interpolation from the run defined calibration curve. The raw data was processed using AB SCIEX 1.5.1 software.
# [3] = parenteral administration, levels exceeded for prolonged periods of time; cited from earlier work
substance,measurement,setting,value
gentamicin,"local concentration of gentamicin, area B","[1]; area B of FIG. 4, 24 hours after single 0.2 ml IM injection of RA:SA (70:30) copolymer with 20 wt % gentamicin sulfate",46 µg/mL
same,"local concentration of gentamicin, area C","[1]; area C of FIG. 4, 24 hours after single 0.2 ml IM injection of RA:SA (70:30) copolymer with 20 wt % gentamicin sulfate",3 µg/mL
same,"local concentration of gentamicin, area D","[1]; area D of FIG. 4, 24 hours after single 0.2 ml IM injection of RA:SA (70:30) copolymer with 20 wt % gentamicin sulfate",6 µg/mL
same,"local concentration of gentamicin, area A","[1]; injection site, 24 hours after single 0.2 ml IM injection of RA:SA (70:30) copolymer with 20 wt % gentamicin sulfate",765 µg/mL
same,"local concentration of gentamicin, area A","[2]; injection site, 24 hours after single 0.2 ml SC injection of RA:SA (70:30) copolymer with 20 wt % gentamicin sulfate",362 µg/mL
same,"local concentration of gentamicin, area B","[2]; strip B of FIG. 8, 24 hours after single 0.2 ml SC injection of RA:SA (70:30) copolymer with 20 wt % gentamicin sulfate",218 µg/mL
same,"local concentration of gentamicin, area C","[2]; strip C of FIG. 8, 24 hours after single 0.2 ml SC injection of RA:SA (70:30) copolymer with 20 wt % gentamicin sulfate",43 µg/mL
same,"local concentration of gentamicin, area D","[2]; strip D of FIG. 8, 24 hours after single 0.2 ml SC injection of RA:SA (70:30) copolymer with 20 wt % gentamicin sulfate",31 µg/mL
same,systemic levels above which ototoxicity and nephrotoxicity are induced,[3],10 to 12 µg/mL
